Numbered stars: 1 amine (or outer) side, 2 acyl side, 3 side chain; on linkers, the order of the positions; unused ones are H or OH. Square brackets hold non-standard residues; d marks the D form. Peptide text beside a SMILES is read from it. Phe(4-F)ψ(2,4-Thz) = O=C(c1csc([C@H](Cc2ccc(F)cc2)N[*:1])n1)[*:2]; hArg = N=C(N)NCCCC[C@H](N)C(=O)O; Cha = N[C@@H](CC1CCCCC1)C(=O)O; Sar = CNCC(=O)O
Tests used:
gel-filtered platelets [1] = experiment: In vitro inhibition of thrombin-induced gel-filtered platelet aggregation; assay type: cell-based; conditions: agonist thrombin, gel-filtered human platelets, read-out: Platelet Aggregation** IC50 Thr*
Protocol: IN VITRO INHIBITION OF THROMBIN-INDUCED GEL-FILTERED PLATELET AGGREGATION ASSAY.
The percentage of platelet aggregation is calculated as an increase in light transmission of compound-treated platelet concentrate vs. control-treated platelet concentrate. Human blood is obtained from drug free, normal donors in tubes containing 0.13 M sodium citrate. Platelet rich plasma (PRP) is collected by centrifugation of whole blood at 200 x g for 10 min at 25°C. The PRP (5 mL) is gel filtered through Sepharose 2B (bed volume 50 mL), and the platelet count is adjusted to 2x10^7 platelets per sample. The following constituents are added to a siliconized cuvette: concentrated platelet filtrate and Tyrode's buffer (0.14 M NaCI, 0.0027 M KCI, 0.012 M NaHCO3, 0.76 mM Na2HPO4, 0.0055 M glucose, 2 mg/mL BSA and 5.0 mM HEPES @ pH 7.4) in an amount equal to 350 µl, 50 µl of 20 mM calcium and 50 µl of the test compound. Aggregation is monitored in a BIODATA aggregometer for the 3 min following the addition of agonist (thrombin 50 µl of 1 unit/mL).
The table contains IC50 values (µM) of the compounds in a thrombin receptor binding assay, and IC50 values (µM) against platelet aggregation stimulated by two agonists, thrombin or SFLLRN-NH2 (TRAP).
* µM ** Thrombin-induced aggregation of gel-filtered platelets in µM.

gel-filtered platelets [2] = experiment: In vitro inhibition of SFLLRN-NH2 (TRAP)-stimulated gel-filtered platelet aggregation; assay type: cell-based; conditions: agonist SFLLRN-NH2 (TRAP), gel-filtered human platelets
thrombin receptor = target: T1, thrombin receptor (Homo sapiens, UniProt P25116); experiment: In vitro thrombin receptor binding assay (CHRF membranes, tritiated 721-40); conditions: displacement of tritiated 721-40 (Ser-pFPhe-Har-Leu-Har-Lys-Tyr-NH2), read-out: Thr Receptor Binding IC50*
T1 construct: CHRF membranes (Jones, Biochim. Biophys. Acta 1992, 1136, 272) are thawed from -70°C; endogenous in cells; host or cells: CHRF cell membranes
T1 sequence (P25116 22-425): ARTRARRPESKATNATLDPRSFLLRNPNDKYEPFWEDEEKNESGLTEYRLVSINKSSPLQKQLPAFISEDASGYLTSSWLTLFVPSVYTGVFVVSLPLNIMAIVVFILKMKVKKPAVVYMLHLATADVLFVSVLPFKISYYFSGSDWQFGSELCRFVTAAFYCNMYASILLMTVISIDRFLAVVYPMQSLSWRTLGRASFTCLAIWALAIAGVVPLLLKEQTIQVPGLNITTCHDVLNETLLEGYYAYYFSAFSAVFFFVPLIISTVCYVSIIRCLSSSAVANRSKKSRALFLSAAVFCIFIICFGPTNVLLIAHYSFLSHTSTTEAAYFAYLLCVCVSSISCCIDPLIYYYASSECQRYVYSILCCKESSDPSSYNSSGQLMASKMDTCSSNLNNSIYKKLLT
Protocol: IN VITRO THROMBIN RECEPTOR BINDING ASSAY.
CHRF membranes (Jones, Biochim. Biophys. Acta 1992, 1136, 272) are thawed from -70°C, centrifuged at maximum speed for 5 min, washed twice with binding buffer (50 mM HEPES containing 5 mM MgCl2 and 0.1% BSA), and re-suspended in binding buffer ([…]). 100 µl of membranes are added to the 24-Wallac plates and delivered to the Tomtech apparatus. In a typical experiment, 6 µl of samples (from a 125 µg/mL intermediary plate, 20%DMSO) and 44 µl buffer are delivered to the plates (final conc. of compounds is 3.7 µg/mL, 0.6% DMSO). Similarly, 6 µl 20%DMSO and 44 µl buffer are delivered to both column 1 (NSB) and column 12 (TB). 10 µl Ser-pFPhe-Har-Leu-Har-Lys-Tyr-NH2 (721-40; 500 µM in deionized water) is added to column 1.50 µl tritiated 721-40 (specific activity 46 Ci/mmol) is added to all the wells. The plates are mixed well for 20 seconds, incubated for 30 min, and then harvested with 10 mM HEPES/138 mM NaCl using the Skatron harvester. The filters (GF/C Brandel FPXLR 296) are presoaked 3 h in 0.5% polyethylenimine in HEPES/0.1 M N-acetylglucosamine) are set in saran wrap and dried for 3 min in the microwave, and placed in sample bags (Wallac 1450-432). 4.5 mL scintillation fluid (Wallac, Betaplate Scint 1205-440) is added. The bags are sealed, placed in filter cassettes (Wallac 1450-104), and analyzed on the microbeta counter. […]

| Structure (SMILES) | IC50 (gel-filtered platelets [1]; Platelet) [µM] | IC50 (gel-filtered platelets [2]; Platelet) [µM] | IC50 (thrombin receptor) [µM] | IC50 (gel-filtered platelets [1]) [µM] | IC50 (gel-filtered platelets [2]) [µM] |
| --- | --- | --- | --- | --- | --- |
| CNCC(=O)N[C@@H](Cc1ccc(F)cc1)c1nc(C(=O)N[C@@H](CC2CCCCC2)C(=O)N[C@@H](CCCNC(=N)N)C(=O)NCc2ccccc2)co1 [Compound 1, 2-[1(S)-Sarcosineamido-2-(4-fluorophenyl)ethyl]oxazole-4-carboxy-cyclohexylalanyl-arginine benzylamide] | 25 | 10 |  |  |  |
| N=C(N)NCCC[C@H](NC(=O)[C@H](CC1CCCCC1)NC(=O)c1coc([C@H](Cc2ccc(F)cc2)NC(=O)CCN)n1)C(=O)NCc1ccccc1 [Compound 2, 2-[1(S)-β-Alanineamido-2-(4-fluorophenyl)ethyl]oxazole-4-carboxycyclohexylalanyl-arginine benzylamide] | 10 | 7 |  |  |  |
| CNCC(=O)N[C@@H](Cc1ccc(F)cc1)c1nc(C(=O)N[C@@H](CC2CCCCC2)C(=O)N[C@@H](CCCNC(=N)N)C(=O)NCCc2ccccc2)cs1 [Compound 3, 2-[1(S)-Sarcosineamido-2-(4-fluorophenyl)ethyl]thiazole-4-carboxycyclohexylalanyl-arginine phenethylamide] | 12 | 0.6 |  |  |  |
| CNCC(=O)N[C@@H](Cc1ccc(F)cc1)c1nc(C(=O)N[C@@H](CC2CCCCC2)C(=O)N[C@@H](CCCCNC(=N)N)C(=O)N[C@@H](Cc2ccccc2)C(N)=O)cs1 [Compound 4] (H-[Sar][Phe(4-F)ψ(2,4-Thz)][Cha][hArg]F-NH2) | 45 |  | 5 |  |  |
| CC[C@H](C)[C@H](N)C(=O)N[C@@H](Cc1ccc(F)cc1)c1nc(C(=O)N[C@@H](CC2CCCCC2)C(=O)N[C@@H](CCCNC(=N)N)C(=O)N[C@@H](Cc2ccccc2)C(N)=O)cs1 [Compound 5] (H-I[Phe(4-F)ψ(2,4-Thz)][Cha]RF-NH2) | 43 | 9 |  |  |  |
| CNCC(=O)N[C@@H](Cc1ccc(F)cc1)c1nc(C(=O)N[C@@H](CCCCN)C(=O)N[C@@H](CCCNC(=N)N)C(=O)NCCc2ccccc2)cs1 [Compound 6, 2-[1(S)-Sarcosineamido-2-(4-fluorophenyl)ethyl]thiazole-4-carboxy-lysyl-arginine phenethylamide] | 26 | 4 |  |  |  |
| CNCC(=O)N[C@@H](Cc1ccc(F)cc1)c1nc(C(=O)N[C@@H](CC2CCCCC2)C(=O)N[C@@H](CCCNC(=N)N)C(=O)NCc2ccccc2)c(C)o1 [Compound 7, 2-[1(S)-Sarcosineamido-2-(4-fluorophenyl)ethyl]-5-methyloxazole-4-carboxy-cyclohexylalanyl-arginine benzylamide] | 19 | 22 |  |  |  |
| Cc1oc(C(Cc2ccc(F)cc2)NC(=O)C(N)Cc2cn(Cc3ccccc3)cn2)nc1C(=O)NC(CC1CCCCC1)C(=O)NC(CCCNC(=N)N)C(=O)NCc1ccccc1 [Compound 8, 2-[1(S)-N(tau)-Benzyl-histidineamido-2-(4-fluorophenyl)ethyl]-5-methyloxazole-4-carboxy-cyclohexylalanyl-arginine benzylamide] | 13 | 5 |  |  |  |
| CC(=O)N[C@@H](Cc1ccc(F)cc1)c1nc(C(=O)N[C@@H](CC2CCCCC2)C(=O)N[C@@H](CCCNC(=N)N)C(=O)NCc2ccccc2)c(C)o1 [Compound 9, 2-[1(S)-Acetamido-2-(4-fluorophenyl)ethyl]-5-methyloxazole-4-carboxy-cyclohexylalanyl-arginine benzylamide] | 24 | 11 |  |  |  |
| Cc1oc([C@H](Cc2ccc(F)cc2)N(C)C)nc1C(=O)N[C@@H](CC1CCCCC1)C(=O)N[C@@H](CCCNC(=N)N)C(=O)NCc1ccccc1 [Compound 10, 2-[1(S)-N,N-Dimethyl-2-(4-fluorophenyl)ethyl]-5-methyloxazole-4-carboxy-cyclohexylalanyl-arginine benzylamide] |  |  |  | 11 | 17 |

— patent EP1054892B1, “AZOLE PEPTIDOMIMETICS AS THROMBIN RECEPTOR ANTAGONISTS” (Ortho-McNeil Pharmaceutical, Inc., priority 1998, dated 1999)
